# Data reported in US11439618B2, “Compositions and methods for lowering triglycerides” (Amarin Pharmaceuticals Ireland Limited, priority 2009, dated 2022).
# Experiment: Essential fatty acid (EFA) parameters in plasma and RBC, gas chromatography of fatty acid methyl esters
# Assay type: in vivo, human
# Procedure: Blood samples (10 mL) were collected at Visit 1 (screening) and at Visits 4, 5 and 6. Analysis was performed by MSR Lipid Analysis, Scottish Crop Research Institute, Dundee, UK. The screening sample acted as baseline for the EFA measurements. Lipid was extracted from plasma, serum and RBC suspensions and converted into fatty acid methyl esters which were analyzed by gas chromatography to give fatty acid profiles as micrograms fatty acid per gram of sample (μgFA/g) and normalized area percent.
# RBC and plasma EFA data were collected at baseline, Day 14, 28 and 42 and summarized by visit for each treatment group. Change from baseline and percent change from baseline were also summarized. ANCOVA comparison of ethyl-EPA dose groups and ethyl-EPA versus placebo was performed.
# Notable changes for these parameters occurred in the ethyl-EPA treatment groups at Days 14, 28 and 42 compared to placebo.
structure (smiles),measurement,setting,value
"CC/C=C\C/C=C\C/C=C\C/C=C\C/C=C\CCCC(=O)OCC [Ethyl-EPA, all-cis eicosa-5,8,11,14,17-pentaenoic acid ethyl ester]",AA Mean at Baseline,"RBC, 1 g daily group, Baseline",171.2 µg/g
same,DGLA Mean at Baseline,"RBC, 1 g daily group, Baseline",23.0 µg/g
same,DHA Mean at Baseline,"RBC, 1 g daily group, Baseline",66.5 µg/g
same,DPAn-3 Mean at Baseline,"RBC, 1 g daily group, Baseline",34.1 µg/g
same,EPA Mean at Baseline,"RBC, 1 g daily group, Baseline",19.8 µg/g
same,EPA/AA Mean (SD) at Baseline,"RBC, 1 g daily group, Baseline",0.1 (0.07)
same,AA Mean change from Baseline,"RBC, 1 g daily, Day 14",-8.1 µg/g
same,DGLA Mean change from Baseline,"RBC, 1 g daily, Day 14",-2.7 µg/g
same,DHA Mean change from Baseline,"RBC, 1 g daily, Day 14",-4.6 µg/g
same,DPAn-3 Mean change from Baseline,"RBC, 1 g daily, Day 14",0.9 µg/g
same,EPA Mean change from Baseline,"RBC, 1 g daily, Day 14",12.3 µg/g
same,EPA/AA Mean (SD) change from Baseline,"RBC, 1 g daily, Day 14",0.1 (0.04)
same,AA Mean change from Baseline,"RBC, 1 g daily, Day 28",-17.0 µg/g
same,DGLA Mean change from Baseline,"RBC, 1 g daily, Day 28",-3.8 µg/g
same,DHA Mean change from Baseline,"RBC, 1 g daily, Day 28",-6.4 µg/g
same,DPAn-3 Mean change from Baseline,"RBC, 1 g daily, Day 28",3.3 µg/g
same,EPA Mean change from Baseline,"RBC, 1 g daily, Day 28",14.5 µg/g
same,EPA/AA Mean (SD) change from Baseline,"RBC, 1 g daily, Day 28",0.1 (0.05)
same,AA Mean change from Baseline,"RBC, 1 g daily, Day 42",-14.2 µg/g
same,DGLA Mean change from Baseline,"RBC, 1 g daily, Day 42",-3.5 µg/g
same,DHA Mean change from Baseline,"RBC, 1 g daily, Day 42",-7.0 µg/g
same,DPAn-3 Mean change from Baseline,"RBC, 1 g daily, Day 42",6.5 µg/g
same,EPA Mean change from Baseline,"RBC, 1 g daily, Day 42",17.6 µg/g
same,EPA/AA Mean (SD) change from Baseline,"RBC, 1 g daily, Day 42",0.1 (0.06)
same,"AA LS Mean, 1 or 2 g versus 4 g","RBC, 1 g versus 4 g",8.4 µg/g
same,"DGLA LS Mean, 1 or 2 g versus 4 g","RBC, 1 g versus 4 g",1.5 µg/g
same,"DHA LS Mean, 1 or 2 g versus 4 g","RBC, 1 g versus 4 g",1.0 µg/g
same,"DPAn-3 LS Mean, 1 or 2 g versus 4 g","RBC, 1 g versus 4 g",-6.2 µg/g
same,"EPA LS Mean, 1 or 2 g versus 4 g","RBC, 1 g versus 4 g",-24.4 µg/g
same,"EPA/AA LS Mean, 1 or 2 g versus 4 g","RBC, 1 g versus 4 g",−0.18
same,AA Mean at Baseline,"RBC, 2 g daily group, Baseline",172.8 µg/g
same,DGLA Mean at Baseline,"RBC, 2 g daily group, Baseline",23.0 µg/g
same,DHA Mean at Baseline,"RBC, 2 g daily group, Baseline",64.8 µg/g
same,DPAn-3 Mean at Baseline,"RBC, 2 g daily group, Baseline",33.2 µg/g
same,EPA Mean at Baseline,"RBC, 2 g daily group, Baseline",18.9 µg/g
same,EPA/AA Mean (SD) at Baseline,"RBC, 2 g daily group, Baseline",0.1 (0.06)
same,AA Mean change from Baseline,"RBC, 2 g daily, Day 14",-3.1 µg/g
same,DGLA Mean change from Baseline,"RBC, 2 g daily, Day 14",-2.6 µg/g
same,DHA Mean change from Baseline,"RBC, 2 g daily, Day 14",-2.0 µg/g
same,DPAn-3 Mean change from Baseline,"RBC, 2 g daily, Day 14",5.6 µg/g
same,EPA Mean change from Baseline,"RBC, 2 g daily, Day 14",26.9 µg/g
same,EPA/AA Mean (SD) change from Baseline,"RBC, 2 g daily, Day 14",0.2 (0.04)
same,AA Mean change from Baseline,"RBC, 2 g daily, Day 28",-14.1 µg/g
same,DGLA Mean change from Baseline,"RBC, 2 g daily, Day 28",-4.5 µg/g
same,DHA Mean change from Baseline,"RBC, 2 g daily, Day 28",-6.2 µg/g
same,DPAn-3 Mean change from Baseline,"RBC, 2 g daily, Day 28",9.4 µg/g
same,EPA Mean change from Baseline,"RBC, 2 g daily, Day 28",32.9 µg/g
same,EPA/AA Mean (SD) change from Baseline,"RBC, 2 g daily, Day 28",0.02 (0.06)
same,AA Mean change from Baseline,"RBC, 2 g daily, Day 42",-18.8 µg/g
same,DGLA Mean change from Baseline,"RBC, 2 g daily, Day 42",-5.3 µg/g
same,DHA Mean change from Baseline,"RBC, 2 g daily, Day 42",-6.3 µg/g
same,DPAn-3 Mean change from Baseline,"RBC, 2 g daily, Day 42",13.2 µg/g
same,EPA Mean change from Baseline,"RBC, 2 g daily, Day 42",38.3 µg/g
same,EPA/AA Mean (SD) change from Baseline,"RBC, 2 g daily, Day 42",0.3 (0.06)
same,"AA LS Mean, 1 or 2 g versus 4 g","RBC, 2 g versus 4 g",9.8 µg/g
same,"DGLA LS Mean, 1 or 2 g versus 4 g","RBC, 2 g versus 4 g",1.5 µg/g
same,"DHA LS Mean, 1 or 2 g versus 4 g","RBC, 2 g versus 4 g",1.0 µg/g
same,"DPAn-3 LS Mean, 1 or 2 g versus 4 g","RBC, 2 g versus 4 g",-2.5 µg/g
same,"EPA LS Mean, 1 or 2 g versus 4 g","RBC, 2 g versus 4 g",-11.8 µg/g
same,"EPA/AA LS Mean, 1 or 2 g versus 4 g","RBC, 2 g versus 4 g",−0.11
same,AA Mean (SD) at Baseline,"RBC, 4 g daily group, Baseline",171.0 (25.17) μg/g
same,DGLA Mean at Baseline,"RBC, 4 g daily group, Baseline",24.0 µg/g
same,DHA Mean at Baseline,"RBC, 4 g daily group, Baseline",68.3 µg/g
same,DPAn-3 Mean at Baseline,"RBC, 4 g daily group, Baseline",34.5 µg/g
same,EPA Mean at Baseline,"RBC, 4 g daily group, Baseline",19.8 µg/g
same,EPA/AA Mean (SD) at Baseline,"RBC, 4 g daily group, Baseline",0.1 (0.04)
same,AA Mean (SD) change from Baseline,"RBC, 4 g daily, Day 14",−15.7 (26.76) μg/g
same,DGLA Mean change from Baseline,"RBC, 4 g daily, Day 14",-5.3 µg/g
same,DHA Mean change from Baseline,"RBC, 4 g daily, Day 14",-6.9 µg/g
same,DPAn-3 Mean change from Baseline,"RBC, 4 g daily, Day 14",5.4 µg/g
same,EPA Mean change from Baseline,"RBC, 4 g daily, Day 14",39.5 µg/g
same,EPA/AA Mean (SD) change from Baseline,"RBC, 4 g daily, Day 14",0.3 (0.07)
same,AA Mean (SD) change from Baseline,"RBC, 4 g daily, Day 28",−22.8 (29.56) μg/g
same,DGLA Mean change from Baseline,"RBC, 4 g daily, Day 28",-7.1 µg/g
same,DHA Mean change from Baseline,"RBC, 4 g daily, Day 28",-8.7 µg/g
same,DPAn-3 Mean change from Baseline,"RBC, 4 g daily, Day 28",12.4 µg/g
same,EPA Mean change from Baseline,"RBC, 4 g daily, Day 28",50.2 µg/g
same,EPA/AA Mean (SD) change from Baseline,"RBC, 4 g daily, Day 28",0.4 (0.11)
same,AA Mean (SD) change from Baseline,"RBC, 4 g daily, Day 42",−34.4 (31.44) μg/g
same,DGLA Mean change from Baseline,"RBC, 4 g daily, Day 42",-8.0 µg/g
same,DHA Mean change from Baseline,"RBC, 4 g daily, Day 42",-13.8 µg/g
same,DPAn-3 Mean change from Baseline,"RBC, 4 g daily, Day 42",16.2 µg/g
same,EPA Mean change from Baseline,"RBC, 4 g daily, Day 42",52.5 µg/g
same,EPA/AA Mean (SD) change from Baseline,"RBC, 4 g daily, Day 42",0.4 (0.14)
same,"Difference in EPA, AA (RBC only), DPAn-3, DGLA (1 g only for plasma) and EPA/AA ratio levels, 4 g compared to 1 g and 2 g","plasma and RBC, LS means, p≤0.05","significantly (LS means, p≤0.05) different"
